We go through six molecules from PMC6272178, “Flavonoids from Sideritis Species: Human Monoamine Oxidase (hMAO) Inhibitory Activities, Molecular Docking Studies and Crystal Structure of Xanthomicrol” (Molecules, 2015).

Assay [1] concerns the target T1, hMAO-A (Homo sapiens, UniProt P21397).
T1 construct: purchased Sigma-Aldrich (Munich, Germany); host or cells: baculovirus-infected BTI insect cells
T1 sequence (P21397 1-527): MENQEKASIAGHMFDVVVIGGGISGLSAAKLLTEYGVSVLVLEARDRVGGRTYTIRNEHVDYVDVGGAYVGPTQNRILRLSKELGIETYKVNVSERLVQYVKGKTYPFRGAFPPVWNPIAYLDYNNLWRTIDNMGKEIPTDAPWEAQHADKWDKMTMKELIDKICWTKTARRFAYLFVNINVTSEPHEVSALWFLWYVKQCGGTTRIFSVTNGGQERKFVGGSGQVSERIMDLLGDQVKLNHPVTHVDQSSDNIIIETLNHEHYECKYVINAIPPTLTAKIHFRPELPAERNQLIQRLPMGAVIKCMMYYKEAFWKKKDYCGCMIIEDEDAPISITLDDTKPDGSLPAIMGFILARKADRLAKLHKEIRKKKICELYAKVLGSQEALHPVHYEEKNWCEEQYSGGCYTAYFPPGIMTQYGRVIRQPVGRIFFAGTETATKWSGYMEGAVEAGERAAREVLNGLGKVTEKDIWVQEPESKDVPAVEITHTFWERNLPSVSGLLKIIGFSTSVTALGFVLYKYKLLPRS
In words: hMAO-A inhibition, fluorimetric Amplex Red assay with p-tyramine, kinetic Ki determination. Format: biochemical. Conditions: for Mode of hMAO-A inhibition: Lineweaver–Burk plots; for Experimental SI: SI = Ki (MAO-A)/Ki (MAO-B); for Experimental SI / Selectivity: from experimental Ki values; for Selectivity: isoform preferentially inhibited; for Ki: recombinant hMAO-A, p-tyramine substrate 0.05–0.5 mM, mean ± SEM of three experiments, read-out: Experimental Ki for MAO-A.

The target of the next assay is T2, hMAO-B (Homo sapiens, UniProt P27338).
T2 construct: purchased Sigma-Aldrich (Munich, Germany); host or cells: baculovirus-infected BTI insect cells
T2 sequence (P27338 1-520): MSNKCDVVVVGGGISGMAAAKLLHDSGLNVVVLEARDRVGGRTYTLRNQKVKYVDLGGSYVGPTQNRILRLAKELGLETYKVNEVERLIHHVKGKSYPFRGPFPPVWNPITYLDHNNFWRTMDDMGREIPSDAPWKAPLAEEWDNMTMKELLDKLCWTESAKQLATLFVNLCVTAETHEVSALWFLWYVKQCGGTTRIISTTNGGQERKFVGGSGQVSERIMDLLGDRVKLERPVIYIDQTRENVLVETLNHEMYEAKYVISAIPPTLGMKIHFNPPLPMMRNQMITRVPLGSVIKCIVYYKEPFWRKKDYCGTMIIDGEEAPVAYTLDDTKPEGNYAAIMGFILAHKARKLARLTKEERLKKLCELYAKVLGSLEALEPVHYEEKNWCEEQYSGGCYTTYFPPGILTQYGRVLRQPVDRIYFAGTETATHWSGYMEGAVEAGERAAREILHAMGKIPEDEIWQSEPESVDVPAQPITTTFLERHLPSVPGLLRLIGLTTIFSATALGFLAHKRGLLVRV
As to the kind of experiment: hMAO-B inhibition, fluorimetric Amplex Red assay with p-tyramine, kinetic Ki determination. Type of assay: biochemical. Particulars: recombinant hMAO-B, p-tyramine substrate 0.05–0.5 mM, mean ± SEM of three experiments; read-out: Experimental Ki for MAO-B.

Assay [2] concerns the target T1, hMAO-A. As to the kind of experiment: Reversibility of hMAO-A inhibition, centrifugation-ultrafiltration method. Format: biochemical. Particulars: for inhibition at 0.5 µM: compound 0.50 μM, mean ± SEM of three experiments; for Reversibility of hMAO-A inhibition: recovery of hMAO-A activity after repeated washing. The method, then:
Reversibility of the MAO inhibition with newly synthesized compounds was determined by centrifugation-ultrafiltration method previously described. Recombinant enzymes (hMAO-A or B) were incubated with a single concentration of the synthesized compounds or the reference inhibitors in a sodium phosphate buffer (0.05 M, pH 7.4) for one hour at 37 °C. An aliquot was stored at 4 °C and used for the measurement of MAO-A and -B activities. The remaining incubated sample was placed in an Ultrafree-0.5 centrifugal tube with a 30 kDa Biomax membrane and centrifuged at 9000× g for 20 min at 4 °C. The enzyme retained in the 30 kDa membrane was re-suspended in a sodium phosphate buffer at 4 °C and centrifuged two more times. After the third centrifugation, the enzyme retained in the membrane was re-suspended in sodium phosphate buffer ([…]) and an aliquot of this suspension was used for MAO-A and -B activity determination. Control experiments were performed simultaneously to determine the 100% MAO activity by replacing the compounds and standards with appropriate dilutions of the vehicles. The corresponding values of percent (%) MAO isoform inhibition was separately calculated for samples with and without repeated washing.

The next assay has as its system mouse brain MAO-A. Details: method as in PMID 24218136, PMID 25142815. Conditions: flavonoids from Cayratia japonica; cited from earlier work.
[3] abbreviates: after repeated washing (three centrifugation-ultrafiltration steps), read-out: hMAO-A Inhibition (%) After Washing.
Where [4] appears, read: incubated one hour at 37 °C, before washing, read-out: hMAO-A Inhibition (%) Before Washing.

Where two headings read alike, the source gives them in different places.

One may read the Ki as a measure of affinity in units of concentration, obtained from inhibition or displacement. One may read the inhibition as the change of the read-out against control, counted positive when it falls. For the molecule `COc1c(OC)c(O)c2c(=O)cc(-c3ccc(O)cc3)oc2c1OC` [Compound 1, xanthomicrol], on hMAO-A [1], the “Mode of hMAO-A inhibition” value is given as “competitive”, the “Experimental SI” value worked out at 0.007, the Selectivity result is recorded as “MAO-A” and the Ki came out at 0.76 ± 0.03 µM. For the same molecule, the Ki at hMAO-B was determined as 0.0995 ± 0.00744 mM. For the same molecule, at hMAO-A [2] (setting [3]), the inhibition at 0.5 µM was 9.23 ± 0.75%. For the same molecule, the inhibition at 0.5 µM at hMAO-A [2] (setting [4]) amounted to 86.5 ± 5.21%. Besides, the “Reversibility of hMAO-A inhibition” value on hMAO-A [2] is “highly reversible inhibitors”.

Turning to `CC(=O)OC[C@H]1O[C@@H](O[C@H]2[C@H](Oc3cc(O)c4c(=O)cc(-c5ccc(O)cc5)oc4c3O)O[C@H](COC(C)=O)[C@@H](O)[C@@H]2O)[C@H](O)[C@H](O)[C@@H]1O` [Compound 3, isoscutellarein 7-O-[6'''-O-acetyl-β-D-allopyranosyl-(1→2)]-6''-O-acetyl-β-D-glucopyranoside], at hMAO-A [1], the “Experimental SI” value is 0.034, the Selectivity result is “MAO-A” and the Ki turned out to be 2800 ± 180 µM. Also, the Ki at hMAO-B turned out to be 80.5 mM. Further, the inhibition at 0.5 µM on hMAO-A [2] (setting [3]) was 13.3 ± 1.09%. Besides, at hMAO-A [2] (setting [4]), the inhibition at 0.5 µM worked out at 74.2 ± 4.89%.

As for `CC(=O)OC[C@H]1O[C@@H](O[C@H]2[C@H](Oc3cc(O)c4c(=O)cc(-c5ccc(O)cc5)oc4c3O)O[C@H](CO)[C@@H](O)[C@@H]2O)[C@H](O)[C@H](O)[C@@H]1O` [Compound 2, isoscutellarein 7-O-[6'''-O-acetyl-β-D-allopyranosyl-(1→2)]-β-D-glucopyranoside], the “Experimental SI” value at hMAO-A [1] is given as 0.015. Also, the Selectivity entry at hMAO-A [1] is on record as “MAO-A”. Further, the figures for the Ki on hMAO-A [1] and at hMAO-B were 1100 ± 99.2 µM and 75.6 mM, respectively. The figures for the inhibition at 0.5 µM at hMAO-A [2] (setting [3]) and at hMAO-A [2] (setting [4]) were 10.9 ± 0.99% and 80.2 ± 5.66%, respectively.

One may read the IC50 as the concentration at which inhibition is half-maximal. Regarding `O=c1cc(-c2ccc(O)cc2)oc2cc(O)cc(O)c12` [apigenin], the IC50 in the assay with mouse brain MAO-A is 1170 nM.

Turning to `COc1ccc(-c2cc(=O)c3c(O)c(OC)c(OC)cc3o2)cc1` [Compound 4, salvigenin], at hMAO-A [1], the “Mode of hMAO-A inhibition” value is “competitive”, the “Experimental SI” value came out at 0.086, the Selectivity result is given as “MAO-A” and the Ki came out at 0.54 ± 0.02 µM. The Ki at hMAO-B was determined as 0.00627 ± 0.00036 mM. Besides, at hMAO-A [2] (setting [3]), the inhibition at 0.5 µM turned out to be 8.66 ± 0.65%. The inhibition at 0.5 µM at hMAO-A [2] (setting [4]) turned out to be 89 ± 5.02%. Also, the “Reversibility of hMAO-A inhibition” value at hMAO-A [2] is on record as “highly reversible inhibitors”.

`O=C(NCCN1CCOCC1)c1ccc(Cl)cc1` [Moclobemide, moclobemide, reference compound]: the inhibition at 0.5 µM at hMAO-A [2] (setting [3]) was 7.89 ± 0.52%; on hMAO-A [2] (setting [4]) it was 91.2 ± 6.33%.
